According to patent publication US20040005686A1, “Crystalline structure of human MAPKAP kinase-2” (Pharmacia Corporation, priority 2002, published 2004):
Ends that are not written are not given here.

Key:
MK-2 = details: cited from earlier work
[1] = biological target: T1, Human MAPKAP kinase-2 (45-371) (human, UniProt P49137 45-371); test: X-ray crystallography of MK-2 co-crystallized with AMP-PNP, SC-83598 and MgCl2
T1 construct: Expressed in E. coli as a GST fusion; One copy of the complex per asymmetric unit; also called MK-2(45-371); MK-2
T1 sequence (P49137 45-371 limits assumed): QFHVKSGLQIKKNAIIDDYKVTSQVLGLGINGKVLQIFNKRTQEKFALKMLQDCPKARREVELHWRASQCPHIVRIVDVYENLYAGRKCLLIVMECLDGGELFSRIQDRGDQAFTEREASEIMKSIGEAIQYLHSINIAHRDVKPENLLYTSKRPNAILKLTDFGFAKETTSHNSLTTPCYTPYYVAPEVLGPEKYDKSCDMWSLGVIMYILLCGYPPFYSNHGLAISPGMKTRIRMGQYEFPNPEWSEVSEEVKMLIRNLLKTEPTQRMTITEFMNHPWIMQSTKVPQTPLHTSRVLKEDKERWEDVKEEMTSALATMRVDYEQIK

For `C[S+]([O-])c1ccc(-c2nc(-c3ccncc3)c(-c3ccc(F)cc3)[nH]2)cc1` (centres unmarked) [SB203580], the “activation of MK-2” value (MK-2) is given as “inhibit activation of MK-2”.

KKKALLRQLGVAA (not fully specified) [SC-83598 (13-residue inhibitor peptide)]: binds [1].
